Results on four compounds are retold here after US20230057699A1, “NANOTECHNOLOGY-BASED PESTICIDES AND INTERMEDIATES, COMPOSITIONS AND TREATMENTS USING THE SAME” (priority 2020, published 2023).

Structures are written as SMILES. “And” between values parts separate entries of the source, which are not always exact repeats. Equal values may be shown once. Read-outs that look alike come from different tables or passages of the source.

In data set [1] the test system is Corn (Zea mays) seeds. Description: Corn seed germination. The following applies: 0.25-50 mg/L, 7 days.
The subject of data set [2] is Pseudokirchneriella subcapitata. Description: Green alga total chlorophyll (a+b) analysis. The class given is cell-based. How it is done: Control group (panel A) received only growth medium (100 mL). Chlorophylls (a and b) were extracted using a 95% ethanol method and measured using an UV-Vis spectrophotometer (Hach DR6000). Each treatment received 1.2×10^6 cells/mL on day-0 and were allowed to grow until day-28 when the experiments were halted. Chlorophylls were recorded on day-7 (acute), day-14 and day-28 (chronic).
(§1) 1.a. […] Experiments were repeated twice for NoPest-Ag5, Ag+ ions and control groups, and data were combined. Algae were cultured in an Erlenmeyer flask with 100 mL growth media using a16:8 h day:night cycle at 25±2° C. under the LED lighting of 4830 lux. Microscopic analysis coupled with hemocytometer was used to measure cell growth, and total chlorophyll (chlorophyll [a+b]) was used to measure primary productivity, in algae.
1.b. Chlorophyll analysis: Chlorophylls (a and b) were extracted using 95% ethanol method, measured using UV-Vis spectrophotometer (Hach DR6000), and reported as total chlorophyll (a+b).

Data set [3] relates to Soybean seeds. Description: Soybean seedling biomass. The following applies: 0.2-50 mg/L, day-7. The class given is in vivo, Glycine max. An excerpt:
FIG. 13 depicts the effect of exposure to NH2—AgNPs on soybean seedling biomass.

Data set [4] concerns Daphnia magna. Description: Daphnia magna chronic 21-day reproduction test. It counts as in vivo. An excerpt:
FIG. 23 depicts a Daphnia magna 21-day (chronic) reproduction test.
This mirrors OECD 202, Daphnia sp. Reproduction Test.

In data set [5] the test system is Pseudokirchneriella subcapitata. Description: Green alga cell growth (cell count). It counts as cell-based. How it is done: Control group (panel A) received only growth medium (100 mL). Each treatment received 1.2×10^6 cells/mL on day-0 and were allowed to grow until day-28 when the experiments were halted. Cell count was recorded on day-7 (acute), day-14 and day-28 (chronic).
as §1

The subject of data set [6] is soybean seed. Description: Soybean seed germination. The following applies: 0.25-50 mg/L, 7 days.
Data set [7] relates to E. coli DH5α. Description: Antimicrobial growth curves. The class given is cell-based, Escherichia coli. The following applies: 10 ppm. As for the experimental part:
(§2) FIG. 8 depicts the antimicrobial effects of positively charged NH2—AgNPs compared with carboxylate/citrate AgNPs (cit-AgNPs) and Ag^+ ions on E. coli DH5α and K12 growth (panel A), and the effects of the surface interaction of 10 mg/L (equivalent to 10 ppm) NH2—AgNPs compared with the effects of the surface interaction of Cit-AgNPs and Ag^+ ions on E. coli DH5α (panel B).

Data set [8] relates to E. coli K12. Description: Antimicrobial growth curves. It counts as cell-based, Escherichia coli. The following applies: 10 ppm. How it is done:
as §2

The test system of data set [9] is E. coli DH5α. Description: Surface interaction with bacterial cells (imaging). The class given is cell-based, Escherichia coli. The following applies: 10 mg/L (as total Ag), 72 h. How it is done:
as §2

Data set [10] has as its system Daphnia magna. Description: Daphnia magna acute 48-hour survival test. As for the experimental part:
FIG. 22 depicts a Daphnia magna 48-hour (acute) toxicity test.
This mirrors OECD 202, Daphnia sp. Reproduction Test. […] Daphnia were cultured in a beaker (500 mL) using 16:8 h day:night cycle at 20±2° C. under the diffused cool LED lighting.

Data set [11] deals with honeybee, Apis mellifera L. Description: Honeybee 48-hour oral exposure test (OECD 213). The class given is in vivo. The following applies: for 48-hour Mortality: per replicate of 10 bees; for Consumption after 6 hours: Consumed: per replicate, 200 μL provided. As for the experimental part: (§3) Pollinators, especially honeybees, are susceptible to certain insecticides. Understanding the susceptibility of honeybees will determine the test substance's safe use in the environment as well as when the product should be used in relation to honeybee activity.
Honeybee 48-hour Oral Exposure Test: Oral exposure followed OECD Test 213 method. […] The test included nominal test item doses ranging from 1 to 400 ng a.i./bee (ppt a.i./bee) and a concurrent negative control group. Additional groups of bees from the same source were dosed with imidacloprid, at 0.0013, 0.0032 and 0.008 μg a.i./bee (ppb a.i./bee) as a positive control substance, also conducted concurrently. Three replicate test chambers were maintained in each control and treatment group, with 10 bees in each test chamber. Observations of mortality and other signs of toxicity were made for approximately 48 hours after dosing. Cumulative mortality observed in the test groups was used to determine the LD50 (lethal dose that kills 50% of the test populations).

Data set [12] deals with honeybee, Apis mellifera L. Description: Honeybee 48-hour contact (dermal) exposure test (OECD 214). The class given is in vivo. The following applies: 0.008 μg a.i./bee [4 mg a.i./L], per replicate of 10 bees, listed as Positive Control.
Data set [13] deals with honeybee, Apis mellifera L. The data set is described as above. The class given is in vivo. The following applies: for 48-hour Mortality: per replicate of 10 bees, listed as Positive Control. As for the experimental part: as §3
Honeybee 48-hour Contact (Dermal) Exposure Test Contact exposure followed OECD Test 214 method. Young adult worker honeybees were exposed to six test doses ranging from 0.1 to 40 ng a.i./bee administered topically to the dorsal side of the thorax of each bee in a 2 μL droplet of water containing 1% Tween 80 surfactant. A negative control group and a surfactant control group were maintained concurrently. Additional groups of bees from the same source were nominally dosed with imidacloprid, at 0.032, 0.08 and 0.2 μg a.i./bee as a positive control substance. The positive control test was conducted concurrently with the definitive test and the bees were administered topically to the dorsal side of the thorax of each bee in a 2.0 μL droplet with water containing […] surfactant. Three replicate test chambers were maintained in each control and treatment group, with 10 bees in each test chamber. Observations of mortality and other signs of toxicity were made for approximately 48 hours after dosing. Cumulative mortality observed in the test groups was used to determine the LD50.

The mark [14] stands for this setting: 0.0013 μg a.i./bee [0.0065 mg a.i./L].
Where [15] appears, read: 0.0032 μg a.i./bee [0.016 mg a.i./L].
Setting [16] is: 0.0032 μg a.i./bee [0.016 mg a.i./L], listed as Positive Control.
Where [17] appears, read: 0.008 μg a.i./bee [0.04 mg a.i./L].
Where [18] appears, read: 0.008 μg a.i./bee [0.04 mg a.i./L], listed as Positive Control.
Setting [19] is: 0.032 μg a.i./bee [16 mg a.i./L].
The mark [20] stands for this setting: 0.2 μg a.i./bee [100 mg a.i./L].

Regarding `[Ag+]` [Ag^+ ions], in data set [1], the “Toxicity in germination of corn” value is given as “non-toxic”. Also, the “Toxicity by total chlorophyll” value in data set [2] (10 mg/L) was “less toxic compared to NoPest-Ag5”. For the same compound, in data set [3], the “Seedling biomass compared to control (water only)” value is reported as “promoted seedling biomass”. In data set [4] (0.01 mg/L), the “Mean decrease in reproduction” value is listed as 6.6%. Besides, the “Mean increase in reproduction” value in data set [4] (concentrations except 0.01 mg/L) is given as 126.6-1120%. The “Comparative toxicity of all four test compounds (cell count)” value in [5] is “most toxic”. In addition, in data set [5] (at or above 1 mg/L), the “Algal growth compared to control (cell count)” value is “inhibited algal growth”. In addition, the “Toxicity in germination of soybean” value in data set [6] is reported as “non-toxic”. The “Nature of effect based on growth curves” value in data set [7] and in data set [8] was “bacteriostatic effects” throughout. The “Cell integrity after surface interaction” value in [9] is reported as “intact cells were observed, but with a shape change to a hexagonal honeycomb like phenotype lacking adherent fimbriae”.
As to `[Cd+2]` [Cd^2+ ions], in data set [2] (0.05-0.75 mg/L), the Chlorophyll synthesis entry is reported as “chlorophyll synthesis did occur”. Further, the “Chlorophyll synthesis compared to control” value in [2] (at or above 1 mg/L) is reported as “inhibited chlorophyll synthesis”. In addition, the “Algal growth compared to control (cell count)” value in data set [5] (0.5 mg/L) is reported as “stimulatory”. The “Algal toxicity (cell count)” value in data set [5] (at or above 0.75 mg/L) is recorded as “toxicity of Cd^2+ ions increased”.
`[Cu+2]` [Cu^2+ ions] had a Mean survival in data set [10] (0.5 mg/L) of 0%.
With `O=[N+]([O-])NC1=NCCN1Cc1ccc(Cl)nc1` [Imidacloprid], the “Comparative toxicity of all four test compounds (chlorophyll)” value in [2] is listed as “least toxic”. In addition, the “Toxicity by total chlorophyll” value in data set [2] is on record as “generally non-toxic”. The “48-hour Mortality Mean” value in data set [11] (setting [14]) came out at 0%; in data set [11] (setting [15]) it was 3%; in data set [11] (setting [17]) it was 7%; in [13] (0.008 μg a.i./bee [4 mg a.i./L]) it was 10%; in data set [13] (setting [19]), 33%; in data set [13] (setting [20]), 77%. The “Consumption after 6 hours: Consumed, Mean” value in data set [11] (setting [14]) is 198 µL; in [11] (setting [15]) it was 163 µL; in [11] (setting [17]), 88 µL. In addition, the “48-hour Mortality” value is 0% in data set [11] (setting [14]); 0% (2×) and 10% in [11] (setting [16]); 0% (2×) and 20% in data set [11] (setting [18]); 0% and 20% and 10% in data set [12]; 40% and 10% and 50% in data set [13] (setting [19]); 70% and 100% and 60% in [13] (setting [20]). Moreover, the “Consumption after 6 hours: Consumed” value is 200 μL (2×) and 195 μL in data set [11] (0.0013 μg a.i./bee [0.0065 mg a.i./L], listed as Positive Control); 140 µL and 150 µL and 200 µL in data set [11] (setting [16]); 85 µL and 110 µL and 70 µL in data set [11] (setting [18]). Besides, the Average survival in data set [11] (48-hr, 0.0013-0.008 μg a.i./bee) was 93%-97%. In data set [11] (48 hours), the “Appearance of surviving bees at test termination” value was “appeared normal”. Also, the “Mean consumption per replicate” value in data set [11] (positive control groups) fell in the range of 88 to 198 µL. Further, the “Reproduction compared with control” value in data set [4] is “not significantly different from control”. In addition, in [10] (all concentrations tested), the Mean survival is given as 66.6-86.6%. In data set [5], the “Comparative toxicity of all four test compounds (cell count)” value is “least toxic”. The “Algal toxicity based on cell count” value in data set [5] (all concentrations tested) is listed as “generally non-toxic, except at a high concentration of 100 mg/L”. Further, the Cell growth entry in data set [5] (by day-28) was “concentration-dependent inhibition above 1 mg/L”. Further, the “Surviving bees that appeared lethargic” value in [13] (24 lethargic out of 54 surviving bees) is given as 46.3%. The LD50 in data set [13] (48-hour) is 0.11 μg a.i./bee. In addition, the Average mortality in data set [13] (48-hr, positive control doses, n=30 bees per concentration) was 10%-77%.
